The text below walks through data of patent EP3932936A1, “POLYPEPTIDE HAVING ANTIBACTERIAL ACTIVITY, COMPOSITION FOR PREVENTING OR TREATING SEPSIS COMPRISING SAME, AND ANTIBACTERIAL COMPOSITION” (Dandi Bioscience Inc, priority 2019, dated 2022).

No end group written: not given here.

A short description of data set [1]: Calcein dye leakage from liposome mimicking red blood cell membrane. To be noted: for dye leakage: PC/CH (1:1, w/w) liposome mimicking a red blood cell membrane in a mammal, FIG. 3. The procedure:
(§1) To study an action mechanism for FP12-NH2, FP13-NH2, allD FP12-NH2, and allD FP13-NH2 peptides, the disruption ability of the peptides against liposomes mimicking a bacterial cell membrane and a red blood cell membrane was measured.
(§2) EYPG is an abbreviation for egg yolk L-α-phosphatidyl-DL-glycerol, and EYPC is an abbreviation for egg yolk 1,2-diacyl-sn-glycero-3-phosphocholine. CH is an abbreviation for cholesterol. After dissolving the phospholipids composed according to the content of each component in chloroform, the chloroform was removed using a rotary evaporator, and lyophilization was performed overnight. Afterward, the dried lipid film was dissolved in a Tris-buffer solution, and calcein […]. After repeated freezing and thawing, the calcein-encapsulated liposome was manufactured using an extruder. Subsequently, after an excitation wavelength of a spectrofluorimeter (Shimadzu RF 5301 PC spectrofluorimeter, Japan) was set to 490 nm, and an emission wavelength was set to 520 nm, the peptide was administered to the liposome to measure relative dye leakage, provided that a 100% dye leakage was expressed as fluorescence intensity when 0.01% Triton-Xioo was added.
The upper graphs of FIG. 3 show the % dye leakage for an EYPC/EYPG (7:3, w/w) liposome mimicking bacterial cells, encapsulating a fluorescent dye, calcein, by a peptide according to a peptide concentration. […] The lower graphs of FIG. […]

The subject of data set [2] is S. aureus. To be noted: after treatment with proteolytic enzyme.
Data set [3] can be described thus: In vivo toxicity (survival rate for 72 hours). Further details: species or system ICR mice. To be noted: ratio of a drug dose exhibiting toxicity to a drug dose for exhibiting a desired response. As to the method: To confirm the therapeutic and pharmaceutical effects of an acetate salt substitution of allD FP13-NH2, a septic animal model induced by intraperitoneally administering each of the Escherichia coli (standard strain and ESBL) strains or a normal mouse was treated with the peptide allD FP13-NH2 (AcOH). The antibiotic effect, the toxicity, and the inhibitory activity of […] cytokine IL-6 of the salt substitution with those of the same peptide at the end of trifluoroacetic acid (TFA) were compared.
An experimental method is as follows: Six-week-old female ICR mice (SPF mice, Samtako) with an average body weight of 25 g were used as experimental animals. The experimental animals were provided with sterile feed and water and bred with less than 10 mice per cage, and a day/night cycle was 12 hours.
To evaluate in vivo toxicity, the mice were divided into groups (n=5 or 6 per group) per experiment, and intraperitoneally treated six times with allD FP13-NH2 (TFA) and allD FP13-NH2 (AcOH) mixed with […]'S DEX solution (vehicle) at 0, 1, 2, 3, 4, or 5 hours, followed by observing a survival rate at intervals of 12 hours for 72 hours.

Data set [4] in a line: LPS binding affinity (Kd) by Isothermal Titration Calorimeter (ITC). The note with it: stated in words relative to FP1 (wild type, WT). Also on record: species or system E. coli K1. The text has this: FP1 (ADK 44-54) is denoted by wild type (WT), and peptides in which a point mutation occurred at various sites in WT were manufactured (FP3, FP5, FP6, and FP9). To increase the interaction with LPS in a residue sequence of FP3, peptides were designed based on FP3- and LPS-binding models (FP12-NH2 and FP13-NH2), and peptides were designed by additionally introducing a non-natural amino acid and an amino acid isomer (allomeric D-type amino acid) (allD FP12-NH2, allD FP13-NH2, allD FP-13-9a, allD FP-13-9w, allD FP-13-9k, and allD FP13-NH2 (AcOH)). In addition, an N-terminus PEGylated peptide (PEG-alld FP13-NH2 (AcOH)) was additionally designed, synthesized, and provided by ANYGEN, Co. Ltd. The binding affinity between each of the provided peptides and lipopolysaccharide (LPS) was confirmed through measuring the binding affinity (Kd) using Isothermal Titration Calorimeter (ITC).
Specifically, a method of analyzing binding affinity (Kd) between a peptide and LPS is as follows.
Measurement was carried out using a Malvern MicroCal PEAQ-ITC cell instrument, and the following pretreatment was carried out to confirm interaction with LPS. The amount and morphology of a sample cell are 300 µL and coin-shaped, fixed-in-place, respectively; a syringe rotation rate was 1,200 rpm; and a temperature was 30 °C, 35 °C or 25 °C.
Before the experiment, LPS and the peptide were previously diluted with PBS, thereby preparing 2 mM LPS and 0.2 mM peptide. 300 µL of the peptide was added into cells in the ITC instrument, which had been washed, and 40 µL of LPS was put into a syringe. After measurement conditions for ITC (temperature, number of injections) were set, the syringe was inserted into the cell, and ITC measurement was started. When the measurement was completed, analysis is performed, and the Kd values of LPS and the peptide were calculated.
A general note: In ITC the heat of successive injections is recorded.

The test system of data set [5] is red blood cells. In words: Red blood cell hemolytic activity. The note with it: even at a low concentration; control peptide. In kind it is cell-based, human. As to the method: The following experiment was carried out to determine the toxicity of a peptide through measurement of the red blood cell hemolytic activity in a human.
The red blood cells in a human were diluted with PBS for washing, and centrifuged for 10 minutes, the washing process was repeated three times. The 8.0% red blood cell solution diluted with PBS was loaded into a 96-well microtiter plate by 100 µL and 100 µL of a peptide solution was mixed, the mixture was incubated at 37 °C for 1 hour, and then the 96-well microtiter plate was centrifuged for 5 minutes. A 100 µL of supernatant was taken and transferred to another 96-well microtiter plate, and then absorbance was measured at 405 nm. Here, a value obtained when treated with 0.1% Triton X-100 was calculated as 100% hemolysis, and the hemolytic activity of the peptide was calculated as % hemolysis by Equation 1 below. Cell disruption rate(%Hemolysis) = (A−C)/(B−C) × 100 [formula]
Here, A is the absorbance at 405 nm in a peptide solution, B is the absorbance at 405 nm in a 0.1% Triton X-100, and C is the absorbance at 405 nm in a PBS solution.

The nature of data set [6]: Calcein dye leakage from liposome mimicking gram-negative bacterial cell membrane. To be noted: PC/PG (7:3, w/w) liposome; even at a low concentration. As to the method: as §1
as §2, with “added. […]” for “added.”

Regarding `CC(C)C[C@H](NC(=O)[C@H](Cc1ccc(O)cc1)NC(=O)[C@H](CCCNC(=N)N)NC(=O)[C@H](CCCNC(=N)N)NC(=O)[C@H](CC(C)C)NC(=O)[C@H](CCCCN)NC(=O)[C@@H](NC(=O)[C@H](CCCNC(=N)N)NC(=O)[C@H](CC(C)C)NC(=O)[C@@H](N)CCCNC(=N)N)C(C)C)C(=O)N[C@@H](CCCNC(=N)N)C(N)=O` [FP12-NH2], in data set [1], the dye leakage result is on record as “almost no dye leakage”.

For `CC(C)C[C@H](NC(=O)[C@H](Cc1ccc(O)cc1)NC(=O)[C@H](CCCNC(=N)N)NC(=O)[C@H](CCCNC(=N)N)NC(=O)[C@H](CC(C)C)NC(=O)[C@H](CCCCN)NC(=O)[C@@H](NC(=O)[C@H](CCCNC(=N)N)NC(=O)[C@H](CC(C)C)NC(=O)[C@@H](N)CCCCN)C(C)C)C(=O)N[C@@H](CCCNC(=N)N)C(N)=O` [FP13-NH2], in data set [1], the dye leakage entry is “almost no dye leakage”. As for `CC(C)C[C@@H](NC(=O)[C@H](N)CCCNC(=N)N)C(=O)N[C@H](CCCNC(=N)N)C(=O)N[C@@H](C(=O)N[C@H](CCCCN)C(=O)N[C@H](CC(C)C)C(=O)N[C@H](CCCNC(=N)N)C(=O)N[C@H](CCCNC(=N)N)C(=O)N[C@H](Cc1ccc(O)cc1)C(=O)N[C@H](CC(C)C)C(=O)N[C@H](CCCNC(=N)N)C(N)=O)C(C)C` [allD FP12-NH2], the dye leakage entry in data set [1] is “almost no dye leakage”. In data set [2], the “stability (proteolytic enzyme resistance)” value is “very high stability”. Consider `CC(C)C[C@@H](NC(=O)[C@H](N)CCCCN)C(=O)N[C@H](CCCNC(=N)N)C(=O)N[C@@H](C(=O)N[C@H](CCCCN)C(=O)N[C@H](CC(C)C)C(=O)N[C@H](CCCNC(=N)N)C(=O)N[C@H](CCCNC(=N)N)C(=O)N[C@H](Cc1ccc(O)cc1)C(=O)N[C@H](CC(C)C)C(=O)N[C@H](CCCNC(=N)N)C(N)=O)C(C)C` [allD FP13-NH2 (AcOH)], for which, in data set [3], the “therapeutic index = LD50/ED50” value was “greater than 80”.

As for `CC(C)C[C@@H](NC(=O)[C@H](N)CCCCN)C(=O)N[C@H](CCCNC(=N)N)C(=O)N[C@@H](C(=O)N[C@H](CCCCN)C(=O)N[C@H](CC(C)C)C(=O)N[C@H](CCCNC(=N)N)C(=O)N[C@H](CCCNC(=N)N)C(=O)N[C@H](Cc1ccc(O)cc1)C(=O)N[C@H](CC(C)C)C(=O)N[C@H](CCCNC(=N)N)C(N)=O)C(C)C` [allD FP13-NH2], in data set [1], the dye leakage entry is recorded as “almost no dye leakage”. Moreover, in data set [2], the “stability (proteolytic enzyme resistance)” value is given as “very high stability”. On to KLRVKLRRALR [allD FP-13-9a], for which the LPS binding affinity entry in data set [4] is “strong LPS binding affinity, which is equal to or higher than that of FP1”. Still for that read-out and setting: the entry for KLRVKLRRKLR [allD FP-13-9k] is “strong LPS binding affinity, which is equal to or higher than that of FP1”; for KLRVKLRRWLR [allD FP-13-9w] it is “strong LPS binding affinity, which is equal to or higher than that of FP1”.

With melittin, in data set [5], the hemolytic activity is recorded as 100%. The calcein leakage in data set [1] (PC/CH (10:1, w/w) liposome mimicking a human red blood cell, 0.25 µM) is recorded as approximately 100%; in data set [6] it was “responsible for calcein leakage”.
